Values joined by “and” are separate entries in the source; they are usually repeats but may differ in a detail not shown here. Identical values can stand only once. “Also recorded” adds a separate entry of the source. Like-named read-outs stand apart in the source and are kept apart here. No end group written: not given here. Cys(S-Me) = S-methylated cysteine

The target of one test is T1, Human protein Z (PZ) (Homo sapiens, UniProt P22891).
T1 construct: purchased CellSystems GmbH HCPZ-0220
Kind of test: SPR binding of porphyrins to immobilized PZ (single-cycle kinetics). As to conditions: tested concentration range 187.5 nM – 12 µM. The procedure: (§1) SPR experiments were conducted on a Biacore 8K instrument (Cytiva) to investigate the interaction of PZ with heme, as established before.^[ [19] ^, [35] ^, [37] ^, [43] ^] In brief, PZ (10 µg mL^−1) was dissolved in 10 mM sodium acetate buffer (pH 3.5) and immobilized onto a CM5 sensor chip via standard amine coupling, resulting in a final immobilization level of 767 RU. Heme (stock solution in 30 mM NaOH) was further diluted in running buffer (10 mM HEPES, 150 mM NaCl, and 0.05% Tween 20, pH 7.4). The same was performed with zinc (II) protoporphyrin IX and protoporphyrin IX (Frontier Scientific). Binding kinetics were assessed by injecting seven increasing concentrations of heme (187.5–12,000 nM) in a single‐cycle kinetics format at 25 °C and a flow rate of 30 µL min^−1. Data analysis was performed by global fitting using Biacore Insight Evaluation Software, version 3.0.12.15655 (Cytiva).
(Surface plasmon resonance follows binding to a sensor surface in real time, without labels.)

In test [1] the target is T2, thrombin (Homo sapiens, UniProt P00734). Kind of test: SPR binding of porphyrins to immobilized thrombin. Details: human α‐thrombin (HCT‐0020); purchased CellSystems GmbH HCT-0020. The procedure: as §1
Figure S7. Heme binds to thrombin. For SPR analysis, thrombin (10 µg/ml) was dissolved in 10 mM sodium acetate buffer (pH 6.0) and immobilized onto a CM5 sensor chip via standard amine coupling, resulting in a final immobilization level of 1826.1 RU. Binding kinetics were assessed by injecting six increasing concentrations of heme (187.5 – 6,000 nM) in a single-cycle kinetics format at 25°C and a flow rate of […]
transient nature of heme binding to thrombin. […]

Test [2] is described as follows: UV/vis spectroscopic interaction studies of PZ-derived peptides with heme. Format: binding. The following applies: peptide 10 µM; for heme binding on peptide level: heme 0.4-40 µM; for Kd: read-out: K D (heme-binding affinity of peptide). The procedure: Heme binding to PZ‐derived peptides 1 –5 was analyzed by UV/vis spectroscopy, as previously reported for other protein‐derived peptides as well.^[ [18] ^, [19] ^, [35] ^, [43] ^, [44] ^] In brief, each peptide (10 µM) was incubated for 30 min with heme in 100 mM HEPES buffer (pH 7.0) for 30 min. Absorbance spectra were recorded in the range of 300–600 nm on a Infinite 200 Pro spectrophotometer. Difference spectra were generated by subtraction of the single absorbance data of heme and the peptide, respectively, from the data of the heme–peptide complex. Difference spectra were plotted with GraphPad Prism, version 10.5.0. K D values were calculated using the equation from Pîrnău and Bogdan (2008).^[ [45] ^]

A further test deals with T3, PZ (Homo sapiens, UniProt P22891).
T3 construct: purchased CellSystems GmbH HCPZ-0220 (PZ); HCXA-0060 (FXa)
Briefly: aPTT-based one-stage clotting assay: anticoagulant function of PZ against FXa in the presence of heme. Format: biochemical. The procedure:
To estimate an effect on molecular level, the structure of the PZ–ZPI complex (PDB: 3H5C^[ [42] ^]) was first inspected with heme attached to PZ. The anticoagulant function of PZ was then analyzed in the presence of heme by a one‐stage clotting assay, which was inspired by previous work from us and others.^[ [19] ^, [27] ^] The aPTT‐based assay was performed with the ball coagulometer KC 4 A (Amelung, Lemgo, Germany). PZ (320 nM) was preincubated with different concentrations of heme (0–100 µM) for 30 min in 1x PBS, pH 7.4. Afterward, 50 µL of the PZ–heme mixture was incubated with 50 µL of Actin FSL, 50 µl CaCl2 (30 mM), and 50 µL FXa (0.5 nM) at 37 °C for 3 min. Finally, 50 µL citrated pooled plasma was added and the clotting time was automatically recorded. The following mixtures served as controls: 1) 50 µL PBS‐heme + 50 µL Actin FSL + 50 µL CaCl2 + 50 µL FXa + 50 µL citrated plasma, 2) 50 µL PBS‐heme + 50 µL Actin FSL + 50 µL CaCl2 + 50 µL PBS + 50 µL citrated plasma, 3) 50 µL PZ–heme + 50 µL Actin FSL + 50 µL CaCl2 + 50 µL PBS + 50 µL citrated plasma, 4) 50 µL PZ‐PBS + 50 µL Actin FSL + 50 µL CaCl2 + 50 µL FXa + 50 µL citrated plasma, 5) 50 µL PZ‐PBS + 50 µL Actin FSL + 50 µL CaCl2 + 50 µL PBS + 50 µL citrated plasma, 6) 50 µL PBS + 50 µL Actin FSL + 50 µL CaCl2 + 50 µL FXa + 50 µL citrated plasma, and 7) 50 µL PBS + 50 µL Actin FSL + 50 µL CaCl2 + 50 µL PBS + 50 µL citrated plasma. Final concentrations in the approach were 6 mM CaCl2, 0–20 µM heme, 32 nM and PZ, 0.1 nM FXa. Data were normalized against the clotting time of citrated plasma only (control (7)) and evaluated as the mean of triplicates. The IC50 was determined by fitting the curves with nonlinear regression (GraphPad Prism, version 10.5.0).

Details of test [3]: method as in PMID 27584039. The following applies: read-out: K D (PZ interaction with phospholipid surfaces via Gla domain); cited from earlier work.
A further test concerns T4, human α-thrombin.
T4 construct: human α‐thrombin (HCT‐0020); purchased CellSystems GmbH HCT-0020
Briefly: Chromogenic thrombin amidolytic activity assay (S-2238). Format: biochemical. The procedure:
(§2) Herein, an earlier established chromogenic thrombin amidolytic activity assay system was thus used, inspired by Hogg and Stenflo.^[ [19] ^, [28] ^] PZ (final concentration: 10 nM) was first incubated for 30 min with different heme concentrations (final concentrations: 1–1000 nM). Afterward, the heme–PZ mixture was incubated with thrombin for 10 min and the PZ–thrombin mixture (50 µL; final thrombin concentration: 15 nM) was transferred onto a 96‐well plate (Greiner Bio‐One GmbH). Finally, 5 µL of the substrate solution (H‐D‐Phe‐Pip‐Arg‐pNA x 2 HCl (S‐2238); final concentration: 273 µM) was added. Immediately, kinetic measurements at 405 nm were started, using an Infinite 200 Pro spectrophotometer. Heme only, thrombin only, and PZ‐heme only served as controls. For evaluation, the thrombin activity was determined as the change of absorbance per second and always normalized against the basal thrombin activity without PZ. Data were analyzed as the mean of triplicate and the IC50 was calculated by nonlinear regression (GraphPad Prism, version 10.5.0).

Test [4] is described as follows: Substrate control of the chromogenic assay without thrombin. Format: biochemical. The following applies: no thrombin; heme 1 – 1000 nM, PZ 10 nM; thrombin = 100 %. The procedure: as §2, with “10.5.0). […]” for “10.5.0).”
thrombinheme (0 nM)heme (1 nM) thrombin heme (3.16 nM)heme (10 nM)heme (31.6 nM)heme (100 nM)heme (316 nM)heme (1000 nM)PZ+heme (0 nM)PZ+heme (1 nM) PZ+heme (3.16 nM)PZ+heme (10 nM)PZ+heme (31.6 nM)PZ+heme (100 nM)PZ+heme (316 nM)PZ+heme (1000 nM)
Figure S5. […]

Test [5] relates to thrombin. Details: method as in PMID 2040612. The following applies: PZ:thrombin ratios of ≈1:9 to ≈5:1; cited from earlier work.
Test [6] concerns the target PZ-dependent protease inhibitor (ZPI). Details: method as in PMID 22786881, PMID 24960590. The following applies: read-out: K D (PZ interaction with ZPI via peptidase-like domain); cited from earlier work.
The target of test [7] is thrombin. Details: method as in PMID 2040612. As to conditions: read-out: K D (PZ direct binding to thrombin); cited from earlier work.
Test [8] addresses T2, thrombin. As to conditions: cited from earlier work.
The target in a further test is ZPI (Homo sapiens) (UniProt Q9UK55). The following applies: cited from earlier work.
Chain of ZPI (Homo sapiens) (Q9UK55 22-444): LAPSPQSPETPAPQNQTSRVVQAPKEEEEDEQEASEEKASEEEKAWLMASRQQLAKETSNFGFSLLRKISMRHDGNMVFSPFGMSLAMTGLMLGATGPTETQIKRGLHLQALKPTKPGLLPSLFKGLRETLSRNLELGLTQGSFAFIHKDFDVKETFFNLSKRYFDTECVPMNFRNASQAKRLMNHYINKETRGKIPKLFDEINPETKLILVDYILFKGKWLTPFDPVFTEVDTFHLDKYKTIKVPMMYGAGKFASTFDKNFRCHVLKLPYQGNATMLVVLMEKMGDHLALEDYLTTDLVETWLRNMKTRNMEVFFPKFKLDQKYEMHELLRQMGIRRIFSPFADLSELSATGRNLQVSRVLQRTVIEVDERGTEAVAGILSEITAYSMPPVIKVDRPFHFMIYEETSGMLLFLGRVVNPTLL
Setting [9] is: 100 mM HEPES pH 7.0, 30 min, stoichiometry 1:1.

As for `C=CC1=C(C)c2cc3[nH]c(cc4nc(cc5[nH]c(cc1n2)c(C)c5CCC(=O)O)C(CCC(=O)O)=C4C)c(C)c3C=C` [protoporphyrin IX], the “binding to PZ” value at Human protein Z (PZ) is “did not bind”. For the same compound, the Kd at thrombin [1] (heterogeneous ligand model, read-out: KD1 (porphyrin binding to thrombin)) turned out to be 0.15 µM; at thrombin [1] (read-out: KD2 (porphyrin binding to thrombin)) it was 2.2 µM.

On to `C=CC1=C(C)c2cc3[n-]c(cc4[n-]c(cc5nc(cc1n2)C(C)=C5C=C)c(C)c4CCC(=O)O)c(CCC(=O)O)c3C.[Zn+2]` [zinc protoporphyrin IX], for which, on Human protein Z (PZ), the “binding to PZ” value is listed as “did not bind”.

Regarding AKNEC(Me)HPERT [Peptide 2], in test [2] (setting [9]), the “K D (heme-binding affinity of peptide)” value was “n.b”. The “heme binding on peptide level” value in test [2] is given as “did not bind heme”.

Take “C(Me)SLLHRNITVKTYFNRT ({Cys(S-Me)}-SLLHRNITVKTYFNRT) [Peptide 3, PZ-derived peptide around H183/Y191 with methylated cysteine, positions 179 - 195]”: the Kd in test [2] (setting [9]) turned out to be 1.13 ± 0.5 µM. For the same compound, in test [2], the “heme binding on peptide level” value was “bound heme”.

Regarding FWRRYKGGS [Peptide 1], the Kd in test [2] (setting [9]) amounted to 1.04 ± 0.36 µM. Besides, the “heme binding on peptide level” value in test [2] was “bound heme”.

Turning to “IKITHVHVHMRYD [Peptide 4, PZ-derived peptide around H206/H208/H210, positions 202 - 214]”, the Kd in test [2] (setting [9]) was determined as 0.79 ± 0.36 µM. For the same compound, the “heme binding on peptide level” value in test [2] was “bound heme”.

Regarding “PZ: Human protein Z, vitamin-K-dependent glycoprotein, anticoagulant cofactor; obtained from CellSystems GmbH”, the “impact alone on the procoagulant function of FXa or on clotting of pure plasma (aPTT)” value with PZ (controls, heme 0.06 – 20 µM, PZ 32 nM, FXa 0.1 nM) is listed as “not significantly influenced; also recorded: did not exert any significant impact”. Moreover, in the test with PZ (without heme), the “effect of PZ on the procoagulant effect of FXa” value is listed as “block the procoagulant effect of FXa completely”. Further, the Kd in test [3] is approximately 48 µM; in [6], approximately 0.001 µM; at thrombin [7], 0.11 to 0.15 µM. Also, the “amidolytic activity of thrombin at highest PZ concentration” value with human α-thrombin (PZ 1 µM, ratio ≈30:1 PZ:thrombin) was “≈ 140%”. The “inhibitory effect toward the amidolytic activity of thrombin” value in the test on human α-thrombin (PZ:thrombin ratios of 1:15 to 21:1, without heme) was “≈ 20% and 20%”. In addition, the “remaining amidolytic activity of thrombin” value with human α-thrombin (PZ:thrombin ratios of 1:30 to ≈10:1, thrombin 30 nM) is given as “≈ 5080%”. The “relative amidolytic activity toward substrate S-2238” value in test [4] is on record as ~ 0%. Moreover, the “inhibition of the activity of thrombin in the presence of PZ” value in the test on thrombin [5] was “≈ 20%”.

Regarding Protein Z (from UniProt P22891), the Kd with thrombin [8] was 0.13 µM.

Regarding “Protein Z peptidase-like domain (from UniProt P22891)”, the Kd with ZPI (Homo sapiens) is 0.001 µM.

With “VTREHRGSW [Peptide 5, PZ-derived peptide around H321, positions 317 - 325]”, in [2], the “heme binding on peptide level” value is reported as “did not bind heme”.

The values are drawn from publication PMC12781162, “Human Protein Z as the Second Known Heme‐Binding Protein from the Endogenous Blood Coagulation Inhibitor System” (Chembiochem, 2025).
